Tests used:
Jurkat cells = assay: Cell surface expression of sialic acids, DMB labeling with fluorescence HPLC; format: cell-based; settings: DMB conjugates of membrane fraction
Source text: (§1) Cell Surface Expression of Fluorinated Sialic Acids. […] These experiments assay the overall action of multiple biosynthetic steps downstream of sialic acid, namely activation, processing and attachment to proteins and lipids and finally successful trafficking to the membrane. As mentioned above, six derivatives of mannosamine have been prepared and tested. In order to bypass the most stringent step in sialic acid biosynthetic pathway (ManNAc 6-kinase), fluorinated sialic acids were also prepared for direct use in feeding experiments. Sialic acids were synthesized as described above by enzymatic conversion of mannosamines to the corresponding sialic acids. Fluorine containing sialic acids were fed to Jurkat, HeLa and HL-60 cells in the peracetylated, methyl ester form since Reutter and Bertozzi have independently shown that exogenous addition of sialic acids in this form results in efficient incorporation of a wide range of derivatives. The degree of fluorination on the N-acyl chain was varied from a single terminal trifluoromethyl group to a —C11F17 group.
(§2) To visualize and quantify the sialic acid incorporation on cell surfaces, 1,2-diamino-4,5-methylenedioxybenzene (DMB) was used as a fluorogenic reagent for labeling α-keto acids (FIG. 4). [Hara, S.; Yamaguchi, M.; Takemori, Y.; Furuhata, K.; Ogura, H.; Nakamura, M. “Determination of Mono-O-Acetylated N-Acetylneuraminic Acids in Human and Rat Sera by Fluorometric High-Performance Liquid-Chromatography” Anal. Biochem. 1989, 179, 162-6.] Briefly, the membrane fraction was obtained after incubation with a given compound (200 μM typical, 900 μM maximum) for 3 days. […] The samples were analyzed by HPLC using a fluorescence detector. The retention times (by comparison to an authentic sample) provide information about the identity, LC ESI-MS unambiguously confirms the molecular structure, and integration of the peaks gives quantitative information on the relative amounts of membrane-derived sialic acids.

[1] = system: cell surfaces (Jurkat, HeLa and HL-60 cells); assay: Cell surface expression of sialic acids, DMB labeling with fluorescence HPLC (cell line not stated); format: cell-based; settings: 200 μM typical, 900 μM maximum, 3 days
Source text: Cell Surface Expression of Fluorinated Sialic Acids. […] These experiments assay the overall action of multiple biosynthetic steps downstream of sialic acid, namely activation, processing and attachment to proteins and lipids and finally successful trafficking to the membrane. As mentioned above, six derivatives of mannosamine have been prepared and tested. In order to bypass the most stringent step in sialic acid biosynthetic pathway (ManNAc 6-kinase), fluorinated sialic acids were also prepared for direct use in feeding experiments. Sialic acids were synthesized as described above by enzymatic conversion of mannosamines to the corresponding sialic acids. […]
To visualize and quantify the sialic acid incorporation on cell surfaces, 1,2-diamino-4,5-methylenedioxybenzene (DMB) was used as a fluorogenic reagent for labeling α-keto acids (FIG. 4). […] The samples were analyzed by HPLC using a fluorescence detector. The retention times (by comparison to an authentic sample) provide information about the identity, LC ESI-MS unambiguously confirms the molecular structure, and integration of the peaks gives quantitative information on the relative amounts of membrane-derived sialic acids. […]

[2] = system: HL60 cells adhering to fibronectin; assay: Static adhesion of labeled cells to fibronectin-coated plates; format: cell-based; settings: HL60 cells incubated 72 h with 200 μM compound; PMA or thapsigargin stimulation; 1 hour adhesion
Protocol: FIG. 9 depicts (a) adhesion of HL60 cells to plates coated with fibronectin in the presence of thapsigargin (Tg). The cells were incubated with compounds for 72 hours, washed with PBS and then allowed to adhere to plates. After 1 hr, unattached cells were removed by rinsing with PBS and then the number of cells quantified by addition of calcein-AM and fluorescence counting. (b) Similar assay as in (a) but with compounds 4a and 4d (data in (b) is taken from Horstkorte, R.; Rau, K.; Laabs, S.; Danker, K.; Reutter, W. “Biochemical engineering of the N-acyl side chain of sialic acid leads to increased calcium influx from intracellular compartments and promotes differentiation of HL60 cells” FEBS Lett. 2004, 571, 99-102).
Adhesion of Labeled Cells on Collagen and Fibronectin. The ability of cells labeled with fluorinated carbohydrates to adhere to fibronectin and collagen was also investigated. […] To quantify adhesion, 96-well plates were coated with fibronectin or collagen (10 μg/mL in PBS) for 16 hours at 4° C. followed by treatment with 1% BSA for 4 hours to block nonspecific adhesion sites. […] Unattached cells were washed away by rinsing with PBS and the cells were quantified by addition of the fluorogenic esterase substrate calcein-AM and followed by measurement of emission at 520 nm in a microtiter fluorescence plate reader. […]

[3] = system: BJA-B K20 cells (deficient in UDP-GlcNAc 2-epimerase); assay: Replacement of Neu5Ac with unnatural sialic acids in hyposialylated cells; format: cell-based, human
Protocol: (§3) To visualize and quantify the sialic acid incorporation on cell surfaces, 1,2-diamino-4,5-methylenedioxybenzene (DMB) was used as a fluorogenic reagent for labeling α-keto acids (FIG. 4). [Hara, S.; Yamaguchi, M.; Takemori, Y.; Furuhata, K.; Ogura, H.; Nakamura, M. “Determination of Mono-O-Acetylated N-Acetylneuraminic Acids in Human and Rat Sera by Fluorometric High-Performance Liquid-Chromatography” Anal. Biochem. 1989, 179, 162-6.] Briefly, the membrane fraction was obtained after incubation with a given compound (200 μM typical, 900 μM maximum) for 3 days. The membrane pellet was then hydrolyzed by use of 2 M AcOH at 80° C. and then allowed them to react with DMB to yield the corresponding quinoxalinone derivatives. The samples were analyzed by HPLC using a fluorescence detector. The retention times (by comparison to an authentic sample) provide information about the identity, LC ESI-MS unambiguously confirms the molecular structure, and integration of the peaks gives quantitative information on the relative amounts of membrane-derived sialic acids.
Replacement of Neu5Ac with Unnatural Sialic Acids in Hyposialylated Cells. […] Using these hyposialylated cell lines incorporation of fluorinated precursors was investigated and the overall percentage of sialic acids on cell surfaces that are fluorinated was assessed. […]

HL60-II cells = assay: Incorporation of unnatural sialic acids in highly sialylated cells; format: cell-based
Protocol: as §3
(§4) Roughly 75% of the total sialic acid (using substrate 5g) on the cell surface was fluorinated using these cell lines.

[4] = system: HL60-I cells (deficient in UDP-GlcNAc 2-epimerase); assay: Replacement of Neu5Ac with unnatural sialic acids in hyposialylated cells; format: cell-based
Protocol: as §3
Replacement of Neu5Ac with Unnatural Sialic Acids in Hyposialylated Cells. Cell lines HL60-I and BJA-B K20, variants respectively of the parent HL60 and human B-cell lymphoma (BJA-B), are deficient in UDP-GlcNAc 2-epimerase and show a global suppression of sialylation of glycoconjugates, including expressing mostly unsialylated Lewis-X. [Keppler, 0. T.; Hinderlich, S.; Langner, J.; Schwartz-Albiez, R.; Reutter, W.; Pawlita, M. “UDP-GlcNAc 2-epimerase: A regulator of cell surface sialylation” Science 1999, 284, 1372-6.] Using these hyposialylated cell lines incorporation of fluorinated precursors was investigated and the overall percentage of sialic acids on cell surfaces that are fluorinated was assessed. Both HL60-I and BJA-B K20 cell lines served as metabolic hosts for fluorinated sialic acids 5-N-trifluoropropyl-Neu (5e) and 5-N-trifluorobutyl-Neu (5g) (FIG. 8). […] In contrast, untreated cells only contained Neu5Ac. […]

[5] = system: K88 (a sub clone of BJA-B); assay: Incorporation of unnatural sialic acids in highly sialylated cells; format: cell-based, human
Protocol: as §3, §4

HeLa cells = assay: Cell surface expression of sialic acids, DMB labeling with fluorescence HPLC; format: cell-based
Source text: as §1, §2

[6] = system: HL60 cells adhering to fibronectin; settings: HL60 cells cultivated in the presence of the compound; literature data (Villavicencio-Lorini 2002; Horstkorte 2004); cited from earlier work

Row | Compound | cell surface incorporation / expression (Jurkat cells) | incorporation on cell surfaces as sialoglycoconjugates [1] | adhesion to fibronectin compared to untreated cells [2] | incorporation on the cell surface by LC ESI-MS [3] | incorporation of the fluorinated sialic acid (HL60-II cells) | incorporation on the cell surface by LC ESI-MS [4] | incorporation of the fluorinated sialic acid [5] | total sialic acid on the cell surface replaced (HeLa cells) | cell surface incorporation / expression (HeLa cells; DMB conjugates of membrane fraction) | decrease of adhesion to fibronectin compared to untreated cells [2] | total sialic acid on the cell surface that was fluorinated (HL60-II cells) | cell surface sialylation coming from exogenously added compound ([4]; DMB labeling and fluorescence HPLC) | total sialic acid on the cell surface that was fluorinated [5] | increase of adhesion to fibronectin [6]
1 | O=C(CC(F)(F)F)N[C@H]1[C@H]([C@H](O)[C@H](O)CO)OC(O)(C(=O)O)C[C@@H]1O (stereo partly shown) [Compound 5e, 5-N-trifluoropropyl-Neu] | efficiently incorporated | escorted and appended to cellular surfaces | decreased | unambiguously confirmed | readily incorporated | unambiguously confirmed | readily incorporated | – | – | – | – | – | – | –
2 | 5-N-trifluorobutyl-Neu [Compound 5g] | – | escorted and appended to cellular surfaces | – | unambiguously confirmed | readily incorporated | unambiguously confirmed | readily incorporated | 75% | Cell surface expression of 5g | ~70% | Roughly 75% | ~75% | Roughly 75% | –
3 | CCC(=O)N[C@@H]1C(O)O[C@H](CO)[C@@H](O)[C@@H]1O (stereo partly shown) [Compound 4d, N-propanoyl-mannosamine] | – | – | – | – | – | – | – | – | – | – | – | – | – | more than 130%
